# Laboratory results: patent publication US6696466B1, “Methods of treating select neuronal inflammatory disorders using hydroxyalkylquinolines” (priority 2000, dated 2004)
# “And” between values parts separate entries of the source, which are not always exact repeats. Equal entries are not always repeated. “Also recorded” adds a separate entry of the source.
# Columns and labels:
# Type in all cases: in vivo, human
# [1] = system: Herpes simplex I and II (HSV I and II); test: Treatment and suppression of cold sores in patients; conditions: for time to resolution of cold sore: Singulair resumed vs the patient's previous sores treated with antivirals
# Procedure: Patient had recently discontinued use of Singulair® as a treatment for asthma. […] The cold sore resolved in three days after treatment with Singulair® was resumed. The rate of resolution was faster than the resolution of previous sores which were treated with antiviral treatments such as those marketed under the trademarks Zovirax® or Famvir® (approximately seven to ten days). During the subsequent two years, patient took Singulair® on a daily basis (10 mg, twice a day).
# No cold sore was present at the time therapy was started. […] Within five days of termination of treatment, a cold sore developed.
# [2] = system: post-herpetic neuralgia due to a latent Herpes infection; test: Treatment of post-herpetic neuralgia in patients; conditions: 10 mg per day, taken orally; single patient, neuralgia developed despite initial anti-viral agents
# Procedure: Patient had post-herpetic neuralgia due to a latent Herpes infection. Neuralgia developed despite initial treatment with anti-viral agents as per standard treatment recommendations. Patient began treatment with Singulair® (10 mg per day, taken orally). The post-herpetic neuralgia resolved in ten days. No further treatment was required.
# Patient had postherpetic neuralgia due to a latent Herpes infection. Neuralgia developed despite initial treatment with anti-viral agents as per standard treatment recommendations. Patient began treatment with Singulair® (10 mg per day, taken orally). The post-herpetic neuralgia resolved in 14 days. No further treatment was required.
# cubital tunnel syndrome = test: Treatment of a patient with cubital tunnel syndrome; conditions: 10 mg daily, taken orally, four weeks; single patient, prior NSAIDs and splints failed
# Procedure: Patient was a golfer who experienced symptoms of cubital tunnel syndrome. […] Patient was treated with Singulair® at 10 mg daily, taken orally. […] No further treatment was required despite their return to their regular golfing activity.
# carpal tunnel syndrome = test: Treatment of patients with carpal tunnel syndrome; conditions: for carpal tunnel symptoms, response to treatment: 10 mg per day, taken orally
# Procedure: A carpenter who was experiencing the symptoms of carpal tunnel syndrome was treated with 10 mg of Singulair® per day, taken orally, for four weeks. They continued to perform their daily occupational activities throughout the period of treatment. […] Patient was then treated for short courses of 10 mg of Singulair® per day, whenever symptoms were present, until symptoms subsided.
# A patient who worked as a billing clerk had carpal tunnel symptoms which had not responded to non-surgical methods of treatment. Patient was treated with Singulair® at 10 mg daily, taken orally.
# A patient who works as a data entry clerk, experienced severe carpal tunnel symptoms. They ceased their occupational activities and began treatment with Singulair® at 10 mg per day, taken orally.
# Patient was an insurance clerk who experienced severe carpal tunnel symptoms which had not abated, even after carpal tunnel decompression surgery. For years following surgery, they had experienced severe carpal tunnel symptoms.
# Patient was an assembly line worker at an automobile production facility who was experiencing symptoms of carpal tunnel syndrome was treated with 10 mg of Singulair® per day taken orally. […] They required continuous treatment with 10 mg of Singulair® per day taken orally to maintain remission of their symptoms.
# thoracic outlet syndrome = test: Treatment of a patient with thoracic outlet syndrome; conditions: 10 mg per day, taken orally, four weeks; single patient
# Procedure: Patient was treated with Singulair® at 10 mg per day taken orally. […] No further treatment was required.
# [3] = system: natural graying process of scalp hair; test: Inhibition of graying of scalp hair in a patient; conditions: 10 mg per day, taken orally, two years and four months continuous; single patient with graying of temple regions
# Excerpt: Patient had noted the onset of graying of the temple regions of their hair.
Compound,time to resolution of cold sore ([1]; single patient),"cold sores under continuous daily treatment ([1]; 10 mg per day orally, ten months, patient with history of average two cold sores per month)","development of new cold sore under daily treatment ([1]; 10 mg, twice a day, two years, high ultraviolet light exposure, single patient)","time to cold sore after termination of treatment ([1]; after ten months of treatment, same patient)","cold sores after resumption of treatment ([1]; thirteen months after resumption of treatment, same patient)",time to resolution of post-herpetic neuralgia [2],"cubital tunnel symptoms, response to treatment (cubital tunnel syndrome)","carpal tunnel symptoms, response to treatment (carpal tunnel syndrome; four weeks, single patient)","carpal tunnel symptoms, response to treatment (carpal tunnel syndrome; six weeks, single patient, occupational activities continued)","carpal tunnel symptoms after cessation of treatment (carpal tunnel syndrome; after treatment was stopped, single patient)","carpal tunnel symptoms at follow-up (carpal tunnel syndrome; follow-up as in each example: forty weeks (Ex. 2), recheck two weeks after return to work on treatment (Ex. 3), continuing treatment (Ex. 4))","carpal tunnel symptoms on resumption of treatment (carpal tunnel syndrome; treatment resumed after relapse, single patient)","thoracic outlet syndrome symptoms, response to treatment (thoracic outlet syndrome)",progression of graying of scalp hair [3]
CC(=O)OCC(CCn1cnc2cnc(N)nc21)COC(C)=O [Famvir®],seven to ten,–,–,–,–,–,–,–,–,–,–,–,–,–
"CC(C)(O)c1ccccc1CC[C@@H](SCC1(CC(=O)O)CC1)c1cccc(C=Cc2ccc3ccc(Cl)cc3n2)c1 [Singulair®, 1-(((1(R)-(3-(2-(7-chloro-2-quinolinyl)ethenyl)phenyl)-3-(2-(2-hydroxy-2-propyl)phenyl)propyl)thio)methyl)cyclopropaneacetic acid]",three,remained free of cold sores,no new sore developed,five,remained free of cold sores,ten and 14 days,Symptoms were entirely abated,complete remission of symptoms; also recorded: symptoms had completely resolved,complete resolution of their carpal tunnel symptoms; also recorded: symptoms abated,the symptoms recurred; also recorded: remained symptom-free thereafter; also recorded: symptoms rapidly returned,remains symptom-free,Symptoms abated,symptoms had completely resolved,No progression of the graying process
Nc1nc2c(ncn2COCCO)c(=O)[nH]1 [Zovirax®],seven to ten,–,–,–,–,–,–,–,–,–,–,–,–,–
